Laboratory results reported in patent publication US20250090510A1, “eIF4G1-eIF1 INHIBITORS AND USE THEREOF” (YEDA RESEARCH AND DEVELOPMENT CO. LTD., priority 2022, published 2025).
Like-named read-outs stand apart in the source and are kept apart here.

Key:
[1] = molecular target: rabbit reticulocyte lysate; test: In-vitro translation of capped firefly luciferase mRNA; assay type: biochemical; details: 10 minutes pre-incubation, 90 minutes at 30° C.
[2] = test system: HEK293T cells with eIF4G1 knockdown; test: Puromycin labeling after control or eIF4G1 siRNA; assay type: cell-based, human; details: for IC50: Homo sapiens, HEK-293T, 48 h, 3 h treatment, read-out: IC-50, puromycin labeling
Method: FIGS. 3A-F: i14G1-10 and i14G1-12 inhibit mRNA translation and sensitize cell survival of eIF4G1 and eIF1 depleted cells. (3A) In-vitro translation using rabbit reticulocyte lysate which was pre-incubated with different concentrations of i14G1-10 or i14G1-12 for 10 minutes followed by the addition of capped firefly luciferase mRNA. After 90 minutes at 30° C., the luminescence signal was measured and the IC50 was calculated. The data represents mean±SEM of 6 independent repeats. (3B) HEK293T cells were treated with DMSO (vehicle control), and sub-cytotoxic concentrations of i14G1-10 (20 μM) and i14G1-12 (10 μM) for 3h. Cell lysates were then subjected to sucrose gradient sedimentation to obtain polysome profiles. (3C) HEK293T cells were treated with the indicated concentrations of i14G1-10 and i14G-12 for 3 h, followed by the addition of puromycin (10 μg/ml) for 5 minutes, after which cells were lysed and analyzed by western blot using an anti-puromycin antibody and anti-GAPDH antibody that serves as a loading control. The graph represents the mean±SEM chemiluminescence signal intensity of puromycin labeling normalized to GAPDH of 3 independent experiments. The calculated IC-50 is shown. (3D) HEK293T cells were transfected with either control or eIF4G1 siRNA in the absence or presence of eIF4G1 expression plasmid. As the eIF4G1 siRNA pool is directed against the 3′UTR, which is absent from the eIF4G1 expression plasmid, the exogenous eIF4G1 is resistant to the siRNA. 48 h after transfection, cells were treated with the indicated concentrations of i14G1-10 and i14G-12 for 3 h, followed by a 5 minutes puromycin pulse as described in 3C. The graph represents the mean±SEM chemiluminescence signal intensity of puromycin labeling normalized to GAPDH of 3 independent experiments. The calculated IC-50 is shown. (3E) The graphs represent cell viability of the indicated cell lines in the presence of increasing concentrations of i14G1-10 and i14G1, analyzed by Luminescent Cell Viability Assay. […]

[3] = Analysis of uptake (intracellular levels) by LC-MS; assay type: in vitro ADME; details: for concentration by LC-MS, Media: Media (amount applied)
Method: To determine the intracellular levels of i14G1-10 and i14G1-12, cells treated with these drugs for 3 h were extensively washed and then analyzed by LC-MS. Both compounds were detected within the cells, but the amount of i14G1-12 was substantially lower than the amount that was applied (Table 4).

[4] = cells treated 3 h, extensively washed

| SMILES | IC50 [1] | inhibition of translation upon depletion of eIF4G1 ([2]; eIF4G1 siRNA vs control siRNA) | concentration by LC-MS, Media [3] | concentration by LC-MS, i14G1-10 treated cells [3, 4] | concentration by LC-MS, i14G1-12 treated cells [3, 4] | IC50 ([2]; control siRNA) | IC50 ([2]; eIF4G1 siRNA knockdown) |
| --- | --- | --- | --- | --- | --- | --- | --- |
| O=C(/C=C/Sc1ccc(C(F)(F)F)cn1)c1ccccc1 [i14G1-10] | 5.44 µM | enhanced | 6200 ng/mL | 1130 ± 40 ng/mL | Not detected |  |  |
| Cn1ccnc1S/C(=C/C=C(C#N)C#N)c1ccc(Cl)cc1 [i14G1-12] | 4.14 µM |  | 3300 ng/mL | Not detected |  | 5.65 µM | 80 µM |
